# Measurements reported in patent US4921860A, “Quinuclidyl- and tropanyl-pyridyl ethers as 5-HT3 receptor antagonists” (John Wyeth and Brother, Limited, priority 1987, dated 1990).
# Columns and labels:
# 5-HT3 receptors [1] = target: T1, 5-HT3 receptors (Oryctolagus cuniculus, UniProt A0A5F9C9J3); test: 5-HT3 antagonistic activity in the isolated right atrium of the rabbit heart; assay type: cell-based; conditions: 5-HT evoked increase in spontaneous rate, read-out: apparent PKB (converted)
# T1 construct: 5-HT3 antagonistic activity in the isolated right atrium of the rabbit heart; from tissue; host or cells: isolated right atrium of the rabbit heart (sympathetic nerve terminals)
# T1 sequence (A0A5F9C9J3 1-494): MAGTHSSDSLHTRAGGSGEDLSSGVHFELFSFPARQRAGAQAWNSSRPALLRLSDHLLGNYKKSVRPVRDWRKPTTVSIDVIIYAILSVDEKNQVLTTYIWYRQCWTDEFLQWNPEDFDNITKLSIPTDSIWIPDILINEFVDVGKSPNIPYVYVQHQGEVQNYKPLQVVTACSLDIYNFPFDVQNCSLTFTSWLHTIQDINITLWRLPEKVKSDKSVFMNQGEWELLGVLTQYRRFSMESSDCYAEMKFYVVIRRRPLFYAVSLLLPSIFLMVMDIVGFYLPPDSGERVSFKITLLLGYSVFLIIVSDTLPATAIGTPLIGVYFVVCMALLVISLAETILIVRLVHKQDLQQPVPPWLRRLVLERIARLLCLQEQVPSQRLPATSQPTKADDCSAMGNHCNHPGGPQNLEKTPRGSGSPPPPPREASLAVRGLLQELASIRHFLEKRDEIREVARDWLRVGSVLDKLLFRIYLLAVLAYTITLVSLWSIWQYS
# Description: The compounds of the invention are also tested for 5-HT3 antagonistic activity in the isolated right atrium of the rabbit heart based upon the method of Fozard J. R., Naunyn-Schmiedeberg's Arch. Pharmacol., 1984, 326, 36-44. The procedures relies upon the ability of 5-HT to stimulate 5-HT3 receptors present on sympathetic nerve terminals in the heart, causing release of noradrenaline which evokes an increase in the spontaneous rate of […]. The antagonist potency is expressed in a similar manner to that of the preceding test method i.e. as an apparent PKB.
# 5-HT3 receptors [2] = target: T2, 5-HT3 receptors (Rattus norvegicus, UniProt P35563); test: 5-HT3 receptor antagonism in the isolated vagus nerve of the rat (5-HT induced depolarisation); assay type: cell-based; conditions: isolated rat cervical vagus nerve; estimated from 5-HT concentration ratios; read-out: apparent pKB (KB is the antagonist dissociation constant) (converted)
# T2 construct: tested for 5-HT3 receptor antagonism in the isolated vagus nerve of the rat; from tissue; host or cells: isolated cervical vagus nerve of the rat
# T2 sequence (P35563 24-483): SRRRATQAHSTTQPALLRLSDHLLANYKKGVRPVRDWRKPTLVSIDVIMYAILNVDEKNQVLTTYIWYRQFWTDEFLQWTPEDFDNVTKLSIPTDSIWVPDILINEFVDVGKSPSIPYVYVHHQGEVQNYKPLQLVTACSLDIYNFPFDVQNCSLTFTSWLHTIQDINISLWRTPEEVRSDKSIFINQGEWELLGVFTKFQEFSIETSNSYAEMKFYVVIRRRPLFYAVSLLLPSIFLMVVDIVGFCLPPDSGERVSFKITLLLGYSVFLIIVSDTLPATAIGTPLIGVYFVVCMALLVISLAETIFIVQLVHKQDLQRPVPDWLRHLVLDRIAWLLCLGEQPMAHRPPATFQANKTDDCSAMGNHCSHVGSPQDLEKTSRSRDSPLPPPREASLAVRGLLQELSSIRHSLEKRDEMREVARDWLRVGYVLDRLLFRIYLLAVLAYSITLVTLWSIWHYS
# Description: The pyridyl ethers are tested for 5-HT3 receptor antagonism in the isolated vagus nerve of the rat by a method based upon that of Ireland S. J. and Tyers M. B. Brit. J. Phamacol., 1987, 90, 229-238. The procedure relies upon the ability of 5-HT to induce depolaraisation of neurones in the cervical vagus nerve by a direct action of 5-HT3 receptors. A concentration response curve to 5-HT induced depolaraisation is obtained and the antagonists are added to the bath containing the isolated nerve before repeating the 5-HT concentration-response curve. Antagonist potency is estimated from the 5-HT concentration ratios and expressed as an apparent pKB value (where KB is the antagonist dissociation constant).
smiles,measurement,setting,value
"CN1[C@@H]2CC[C@H]1C[C@@H](Oc1ccccn1)C2 [Example 1, Endo 8 methyl-3-(2-pyridinyloxy)-8-azabicyclo[3.2.1]octane]",Kd,5-HT3 receptors [1],0.0398 µM
same,Kb,5-HT3 receptors [2],0.631 µM
